Key:
[1] = molecular target: T1, recombinant human 5HT6 receptor (Homo sapiens, UniProt P50406); test: Binding to the 5HT6 serotonin receptor ([3H]-LSD radioligand); details: 10^−6 M compound; [3H]-LSD 2.7 nM; HEK-293 cell membranes
T1 construct: purchased Receptor Biology; host or cells: HEK-293 cell membranes
Experimental: Binding to the 5Ht6 Serotonin Receptor
HEK-293 cell membranes expressing the recombinant human 5HT6 receptor were supplied by Receptor Biology. […] Incubation ends by quick filtration in a Harvester Brandel Cell through fiberglass filters of the Schleicher & Schuell GF 3362 trademark, pretreated with a 0.5% polyethyleneimine solution. […] The vials are left to equilibrate for several hours prior to their counting in a 1414 Wallac Winspectral scintillation counter. […] The assays are carried out in triplicate. The inhibition constants (Ki, nM) are calculated by non-linear regression analysis using the EBDA/LIGAND program [Munson and Rodbard, Analytical Biochemistry, 1980, 107, 220].
Binding of the new compounds of general formula (Ia and Ib and Ic) to the 5-HT6 receptor was determined as previously described.

T1 sequence (P50406 whole entry): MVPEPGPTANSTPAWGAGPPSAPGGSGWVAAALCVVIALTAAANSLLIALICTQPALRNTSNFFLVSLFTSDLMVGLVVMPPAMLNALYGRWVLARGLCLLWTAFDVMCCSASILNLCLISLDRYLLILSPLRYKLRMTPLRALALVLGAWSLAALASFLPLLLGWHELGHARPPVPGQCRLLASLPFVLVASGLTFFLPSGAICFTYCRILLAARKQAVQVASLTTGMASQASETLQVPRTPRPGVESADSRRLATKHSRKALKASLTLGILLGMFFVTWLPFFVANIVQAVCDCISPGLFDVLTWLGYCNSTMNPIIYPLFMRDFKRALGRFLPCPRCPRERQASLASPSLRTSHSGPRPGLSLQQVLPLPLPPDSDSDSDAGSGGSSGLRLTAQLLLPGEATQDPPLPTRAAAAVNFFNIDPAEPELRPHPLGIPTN

Compound	melting point [°C]	inhibition at 1 µM [1] [%]	% Inhibition 10^−6 M [1] [%]
Cc1c(S(=O)(=O)Nc2cccc3c2ccn3CCN(C)C)sc2ccc(Cl)cc12 [Example 1, N-[1-(2-dimethylaminoethyl)-1H-indole-4-yl]-5-chloro-3-methyl-benzo[b]thiophene-2-sulfonamide]	78 to 80		
CN(C)CCn1ccc2c(NS(=O)(=O)c3ccc(-c4ccccc4)cc3)cccc21 [Example 4, N-[1-(2-dimethylaminoethyl)-1H-indole-4-yl]-4phenylbenzenesulfonamide]	137 to 140		
CN(C)CCn1ccc2c(NS(=O)(=O)CCc3cccc4ccccc34)cccc21 [Example 5, N-[1-(2-dimethylaminoethyl)-1H-indole-4-yl]-2-(naphthalene-1-yl)-ethanesulfonamide]	47 to 54		
CN(C)CCn1ccc2c(NS(=O)(=O)c3cc(Cl)cc(Cl)c3)cccc21 [Example 7, N-[1-(2-dimethylaminoethyl)-1H-indole-4-yl]-3,5-dichlorobenzenesulfonamide]	113 to 118	72.3	
N-[1-(2-dimethylaminoethyl)-1H-indole-4-yl]-naphtalene-1-sulfonamide [Example 3]			94.8
N-[1-(2-dimethylaminoethyl)-1H-indole-4-yl]-naphtalene-2-sulfonamide [Example 2]			104.3
